Results on 3 compounds are retold here after US20080275134A1, “Methods for Treatment of Retinal Degenerative Disease” (University of Washington, priority 2005, published 2008).

The subject of data set [1] is regeneration of vision chromophore (11-cis-retinal). Briefly: regeneration of 11-cis-retinal in mouse eyes after gavage and light bleach, HPLC retinoid analysis. The format is in vivo. The note with it: 50 mg/kg, tested in parallel with Ret-NH2. As for the experimental part:
Mice were gavaged with all-trains-Ret-NH2, exposed to intense light for 20 min, and then allowed to recover in the dark for 5 hours. The total amount of different forms of retinoids in all experiments was unchanged. […] For this experiment mice were treated with both 9-cis-retinol and all-trans-Ret-NH2, and bleached after 24 hours, and were allowed to recover for 5 hours in the dark. The presence of 9-cis-retinal was confirmed in treated animals (see peaks 4 and 4′ in FIG. 4A bottom panel, corresponding to syn- and anti-9-cis-retinal oximes, respectively). 11-cis-Retinal was not reduced and/or esterified after treatment with Ret-NH2. […] This supports the idea that Ret-NH2 is a specific inhibitor of the isomerization reaction.
A. Chromatographic separation of nonpolar retinoids from WT mouse eyes. Mice were gavaged with all-trans-Ret-NH2 24 hours prior to bleaching for 20 min at 150 cd·m^−2 W in the Ganzfeld chamber. Regeneration of 11-cis-retinal was allowed for 24 hours in the dark, and retinoids were extracted from the eye and separated by normal phase HPLC as described in Materials and Methods. The peaks were identified based on elution time and absorption spectra correspond to the following retinoids: 1, all-trans-retinyl esters; 2,2′, syn- and anti-11-cis-retinal oximes; 3, syn-all-trans-retinal oxime; 4,4′, syn- and anti-9-cis-retinal oximes; 5, all-trans-retinol. B. Changes of 11-cis-retinal oxime levels at increasing doses of all-trans-Ret-NH2 during 5 hours or 24 hours of dark adaptation. Square indicates the level of 11-cis-retinal oximes that was present in mice gavaged with vegetable oil without retinoids just after bleaching, and arrow indicates the increase of visual chromophore during 5 hours of dark adaptation. Triangles correspond to the level of 11-cis-retinal found in the mice gavaged with 50 mg/kg of 13-cis-RA. C and D. Single flash ERG responses of increasing intensity for all-trans-Ret-NH2 treated mice and control mice. Serial responses to increasing flash stimuli were obtained for all-trans-Ret-NH2 treated and control mice for selected intensities (C) and plotted as a function of a-wave and b-wave versus varying light intensities under dark-adapted conditions (D) before bleach and at 5 hours and 24 hours after bleach. The dark-adapted mice were bleached with intense constant illumination (150 cd·m^−2) for 20 min. […] SE bars are shown.
Chromatographic separation of nonpolar retinoids from WT mouse eyes. Mice were gavaged with 100 mg/kg of all-trans-Ret-NH2 24 hours prior to bleaching. Mice were next exposed to 500 cd m^−2 for 48 min bleaching in the Ganzfeld chamber. Regeneration of 11-cis-retinal was allowed for 24 hours in the dark, and retinoids were extracted from the eye and separated by normal phase HPLC as described in Materials and Methods. The peaks identified based on elution time and absorption spectra correspond to the following retinoids: 1, all-trans-retinyl esters; 2,2′, syn- and anti-1-cis-retinal oximes; 3,3′ syn- and anti-all-trans-retinal oximes; 4, all-trans-retinol.
Mice were gavaged with the solution of inhibitor in vegetable oil (control—non-treated, RPN—retinylpalmitamide, RAN—retinylacetamide, Ret—NH2-all-trans-retinylamine), kept in dark for 16 hours, then light stimulated and kept in dark for additional 5 hours before their eyes were analyzed.
Mouse retinoid extraction and analysis—Retinoid analysis was performed under dim red light as described previously (Maeda et al., J. Neurochem 85:944-956, 2003; Van Hooser et al., J Biol Chem 277:19173-82, 2002). Mice were gavaged with retinoids as described previously (Van Hooser et al., J Biol Chem 277:19173-82, 2002).

The next data set deals with A2E formation. The note with it: in vivo; cited from earlier work.
Another data set relates to 11-cis-RDH. The note with it: cited from earlier work.
The next data set deals with RAR. Briefly: F9-RARE-lacZ reporter cell line, β-galactosidase activity (DR5 elements). The format is cell-based. Conditions: 24 hours treatment, micromolar concentrations. From the text:
13-cis-RA can isomerize to all-trans-RA and then to 9-cis-RA, both of which are potent ligands of the RA receptor (RAR). 9-cis-RA also binds and activates the retinoid X receptor (RXR). This contributes to the toxicity of the RAR and RXR ligands. It was investigated whether Ret-NH2 can activate these nuclear receptor using reporter-cells as described previously (20). A β-galactosidase activity assay was employed to examine if all-trans-RA, 9-cis-RA, and Ret-NH2 are agonists for these nuclear receptors.
F9-RARE-lacZ cells express endogenous RAR and RXR and were transfected with a construct of lacZ under the control of a minimal promoter and upstream DR5 elements (1). F9-RARE-lacZ cells were treated with different doses of all-trans-RA or Ret-NH2 for 24 hours after which the cells were harvested and the β-galactosidase activity was measured using the soluble substrate o-nitrophenyl β-D-galactopyranoside. The colorless substrate was cleaved by β-galactosidase to yellow colored o-nitrophenol, whose absorbance was measured at 420 nm using a spectrophotometer. The experiment was repeated twice with similar results. The RARE reporter cell line F9-RARE-lacZ (SIL15-RA) was a kind gift from Dr. Michael Wagner (SUNY Downstate Medical Center) and Dr. Peter McCaffery (University of Massachusetts Medical School). […]

The target of the next data set is T1, CYP26A1 (Homo sapiens, UniProt O43174).
T1 construct: expressed in transfected cells; host or cells: HEK-293
T1 sequence (O43174 1-497): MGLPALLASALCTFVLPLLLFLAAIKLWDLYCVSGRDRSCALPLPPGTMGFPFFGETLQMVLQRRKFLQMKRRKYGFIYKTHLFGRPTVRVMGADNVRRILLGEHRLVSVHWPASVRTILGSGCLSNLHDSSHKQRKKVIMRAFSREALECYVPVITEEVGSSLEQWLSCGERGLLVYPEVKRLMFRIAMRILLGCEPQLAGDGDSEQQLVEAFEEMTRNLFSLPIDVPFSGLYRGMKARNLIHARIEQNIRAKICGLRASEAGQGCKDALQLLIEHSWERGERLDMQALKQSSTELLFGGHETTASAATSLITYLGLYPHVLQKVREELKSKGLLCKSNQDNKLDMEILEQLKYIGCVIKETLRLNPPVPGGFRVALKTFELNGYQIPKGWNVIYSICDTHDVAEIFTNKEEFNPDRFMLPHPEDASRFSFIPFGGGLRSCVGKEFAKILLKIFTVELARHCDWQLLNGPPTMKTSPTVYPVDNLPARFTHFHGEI
The experiment in a line: oxidation in HEK-293 cells transfected with CYP26A1 cDNA. The format is in vitro ADME. The source says: Next, the RA oxidation pathway was investigated. […] In addition to secretion, Ret-NH2 might be degraded first by deamination to all-trans-retinol/retinal, which was seen to increase in Ret-NH2 treated cells. […] These observations explain the long-lasting effect of RetNH2, as the amide is stored and hydrolyzed back to the free amine.

The structures appear in SMILES notation.

For the compound `CC1=C(/C=C/C(C)=C/C=C/C(C)=C\C(=O)O)C(C)(C)CCC1` [13-cis-RA, 13-cis-retinoic acid], the “effect on chromophore recovery at 50 mg/kg” value in data set [1] is on record as “ineffective”. Moreover, the “formation of A2E” value with A2E formation is listed as “blocked the formation of A2E”. The “inhibition of 11-cis-RDH” value with 11-cis-RDH is listed as “inhibits 11-cis-RDH”.

Consider `CC1=C(/C=C/C(C)=C/C=C/C(C)=C/C(=O)O)C(C)(C)CCC1` [all-trans-RA, All-trans-retinoic acid, reference compound], for which, in the data set on RAR, the “activation of transcription through RAR (DR5 RARE)” value was “activated transcription”.

As for `CC1=C(/C=C/C(C)=C/C=C/C(C)=C/C(=O)O)C(C)(C)CCC1` [retinoic acid, reference compound], the “oxidation by CYP26A1” value at CYP26A1 is reported as “readily oxidized”.
